Laboratory results as given in US7402698B2, “Secondary amino-and cycloamino-cycloalkanol derivatives and methods of their use” (Wyeth, priority 2003, dated 2008).
Structures can show the parent of a compound that is named as a salt.

target: T1, human hNET (Homo sapiens, UniProt P23975); assay: Norepinephrine (NE) uptake assay in MDCK-Net6 cells; type: cell-based; settings: 30 μM test compound (stated in cell), [3H]NE uptake
T1 construct: expressed in transfected cells; host or cells: MDCK-Net6 (MDCK cells stably transfected with hNET)
T1 sequence (P23975 whole entry): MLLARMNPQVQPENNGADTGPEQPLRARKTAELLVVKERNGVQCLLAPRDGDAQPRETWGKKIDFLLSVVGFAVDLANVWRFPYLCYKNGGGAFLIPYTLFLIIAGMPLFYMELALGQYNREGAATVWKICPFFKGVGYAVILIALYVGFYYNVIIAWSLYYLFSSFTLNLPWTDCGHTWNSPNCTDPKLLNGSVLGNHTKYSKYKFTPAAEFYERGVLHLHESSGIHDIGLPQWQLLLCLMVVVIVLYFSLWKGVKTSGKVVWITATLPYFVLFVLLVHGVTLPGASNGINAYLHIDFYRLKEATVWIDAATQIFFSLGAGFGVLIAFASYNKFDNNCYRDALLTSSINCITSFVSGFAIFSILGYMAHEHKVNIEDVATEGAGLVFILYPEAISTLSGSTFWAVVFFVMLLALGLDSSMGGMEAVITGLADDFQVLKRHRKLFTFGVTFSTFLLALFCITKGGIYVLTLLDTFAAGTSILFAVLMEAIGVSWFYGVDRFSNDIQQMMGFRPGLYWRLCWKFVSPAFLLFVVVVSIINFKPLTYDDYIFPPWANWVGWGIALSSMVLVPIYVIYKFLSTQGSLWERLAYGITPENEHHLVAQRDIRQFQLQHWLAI

inhibition at 30 µM [%]	SMILES
6	CN1CCC(O)(C(CN2CCOCC2)c2cccc(Br)c2)CC1 (centres unmarked) [Example 116, 4-[1-(3-bromophenyl)-2-morpholin-4-ylethyl]-1-methylpiperidin-4-ol dihydrochloride]
67	OC1(C(CN2CCOCC2)c2cccc(Br)c2)CCC1 (centres unmarked) [Example 95, 1-[1-(3-bromophenyl)-2-morpholin-4-ylethyl]cyclobutanol hydrochloride]
69	OC1(C(CNCc2ccc(F)cc2)c2cccc(Br)c2)CCCCC1 (centres unmarked) [Example 98, 1-{1-(3-bromophenyl)-2-[(4-fluorobenzyl)amino]ethyl}cyclohexanol hydrochloride]
99	OC1(C(CNCc2ccc(C(F)(F)F)cc2)c2cccc(Cl)c2)CCCCC1 (centres unmarked) [Example 105, 1-(1-(3-chlorophenyl)-2-{[4-(trifluoromethyl)benzyl]amino}ethyl)cyclohexanol hydrochloride]
55	OC1(C(CN2CCOCC2)c2cccc(Br)c2)CCCCC1 (centres unmarked) [Example 99, 1-[1-(3-bromophenyl)-2-morpholin-4-ylethyl]cyclohexanol hydrochloride]
55	OC1(C(CNCc2ccc(F)cc2)c2ccc3ccccc3c2)CCCCC1 (centres unmarked) [Example 113, 1-[2-[(4-fluorobenzyl)amino]-1-(2-naphthyl)ethyl]cyclohexanol hydrochloride]
52	CN1CCC(O)(C(CN2CCOCC2)c2ccc(Cl)c(Cl)c2)CC1 (centres unmarked) [Example 114, 4-[1-(3,4-dichlorophenyl)-2-morpholin-4-ylethyl]-1-methylpiperidin-4-ol dihydrochloride]
80	OC1(C(CN2CCOCC2)c2ccc(Cl)c(Cl)c2)CCCCC1 (centres unmarked) [Example 112, 1-[1-(3,4-dichlorophenyl)-2-morpholin-4-ylethyl]cyclohexanol hydrochloride]

target: T1, human hNET; assay: as above; type: cell-based; settings: 1 μM test compound, [3H]NE uptake
Experimental: MDCK-Net6 cells, stably transfected with human hNET (Pacholczyk, T., R. D. Blakely, and S. G. Amara, Nature, 1991, 350(6316): p. 350-4) were cultured in growth medium containing high glucose DMEM (Gibco, Cat. No. 11995), 10% FBS (dialyzed, heat-inactivated, US Bio-Technologies, Lot FBD1129HI) and 500 μg/ml G418 (Gibco, Cat. No. 10131). Cells were plated at 300,000/T75 flask and cells were split twice weekly. The JAR cell line (human placental choriocarcinoma) was purchased from ATCC (Cat. No. HTB-144). The cells were cultured in growth medium containing RPMI 1640 (Gibco, Cat. No. 72400), 10% FBS (Irvine, Cat. No. 3000), 1% sodium pyruvate (Gibco, Cat. No. 1136) and 0.25% glucose. Cells were plated at 250,000 cells/T75 flask and split twice weekly. For all assays, cells were plated in Wallac 96-well sterile plates (PerkinEimer, Cat. No. 3983498).
On day 1, cells were plated at 3,000 cells/well in growth medium and maintained in a cell incubator (37° C., 5% CO2). On day 2, growth medium was replaced with 200 μl of assay buffer (25 mM HEPES; 120 mM NaCl; 5 mM KCl; 2.5 mM CaCl2; 1.2 mM MgSO4; 2 mg/ml glucose (pH 7.4, 37° C.)) containing 0.2 mg/ml ascorbic acid and 10 μM pargyline. Plates containing cells with 200 μl of assay buffer were equilibrated for 10 minutes at 37° C. prior to addition of compounds. A stock solution of desipramine was prepared in DMSO (10 mM) and delivered to triplicate wells containing cells for a final test concentration of 1 μM. Data from these wells were used to define non-specific NE uptake (minimum NE uptake). Test compounds were prepared in DMSO (10 mM) and diluted in assay buffer according to test range (1 to 10,000 nM). Twenty-five microliters of assay buffer (maximum NE uptake) or test compound were added directly to triplicate wells containing cells in 200 μl of assay buffer. The cells in assay buffer with test compounds were incubated for 20 minutes at 37° C. To initiate the NE uptake, [^3H]NE diluted in assay buffer (120 nM final assay concentration) was delivered in 25 μl aliquots to each well and the plates were incubated for 5 minutes (37° C.). The reaction was terminated by decanting the supernatant from the plate. The plates containing cells were washed twice with 200 μl assay buffer (37° C.) to remove free radioligand. The plates were then inverted, left to dry for 2 minutes, then reinverted and air-dried for an additional 10 minutes. The cells were lysed in 25 μl of 0.25 N NaOH solution (4° C.), placed on a shake table and vigorously shaken for 5 minutes. After cell lysis, 75 μl of scintillation cocktail was added to each well and the plates were sealed with film tape. The plates were returned to the shake table and vigorously shaken for a minimum of 10 minutes to ensure adequate partitioning of organic and aqueous solutions. The plates were counted in a Wallac Microbeta counter (PerkinEimer) to collect the raw cpm data.
For each experiment, a data stream of cpm values collected from the Wallac Microbeta counter was downloaded to a Microsoft Excel statistical application program. Calculations of EC50 values were made using the transformed-both-sides logistic dose responses program written by Wyeth Biometrics Department. The statistical program uses mean cpm values from wells representing maximum binding or uptake (assay buffer) and mean cpm values from wells representing minimum binding or uptake ((1 μM desipramine (hNET) or 1 μM paroxetine (hSERT)). Estimation of the EC50 value was completed on a log scale and the line was fit between the maximum and minimum binding or uptake values. All graphic data representation was generated by normalizing each data point to a mean percent based on the maximum and minimum binding or uptake values. The EC50 values reported from multiple experiments were calculated by pooling the raw data from each experiment and analyzing the pooled data as one experiment.

inhibition at 1 µM [%]	SMILES
15	OC1(C(CNCc2ccc(C(F)(F)F)cc2)c2cccc(Br)c2)CCCCC1 (centres unmarked) [Example 90, 1-(1-(3-bromophenyl)-2-{[4-(trifluoromethyl)benzyl]amino}ethyl)cyclohexanol hydrochloride]
31	OC1(C(CNCc2ccccc2)c2cccc(Br)c2)CCCCC1 (centres unmarked) [Example 61, 1-[2-(benzylamino)-1-(3-bromophenyl)ethyl]cyclohexanol hydrochloride]
40	OC1(C(CNCc2ccc(F)cc2)c2cccc(C(F)(F)F)c2)CCCCC1 (centres unmarked) [Example 47, 1-{2-[(4-fluorobenzyl)amino]-1-[3-(trifluoromethyl)phenyl]ethyl}cyclohexanol hydrochloride]
17	OC1(C(CN2CCCCC2)c2cccc(Cl)c2)CCCCC1 (centres unmarked) [Example 85, 1-[1-(3-chlorophenyl)-2-piperidin-1-ylethyl]cyclohexanol hydrochloride]
51	OC1(C(CNCc2ccccc2)c2cccc(Cl)c2)CCCCC1 (centres unmarked) [Example 41, 1-[2-(benzylamino)-1-(3-chlorophenyl)ethyl]cyclohexanol hydrochloride]
92	OC1(C(CNCc2ccccc2)c2ccc(Cl)c(Cl)c2)CCC1 (centres unmarked) [Example 10, 1-[2-(benzylamino)-1-(3,4-dichlorophenyl)ethyl]cyclobutanol hydrochloride]
26	OC1(C(CNC2CCCCC2)c2cccc(Cl)c2)CCCCC1 (centres unmarked) [Example 67, 1-[1-(3-chlorophenyl)-2-(cyclohexylamino)ethyl]cyclohexanol hydrochloride]
90	OC1(C(CNCc2ccccc2)c2ccc3ccccc3c2)CCC1 (centres unmarked) [Example 12, 1-[2-(benzylamino)-1-(2-naphthyl)ethyl]cyclobutanol hydrochloride]
48	OC1(C(CNC2CCCCC2)c2ccc(Cl)c(Cl)c2)CCCCC1 (centres unmarked) [Example 42, 1-[2-(cyclohexylamino)-1-(3,4-dichlorophenyl)ethyl]cyclohexanol hydrochloride]
30	OC1(C(CNCc2ccccc2)c2ccc3ccccc3c2)CCCCC1 (centres unmarked) [Example 62, 1-[2-(benzylamino)-1-(2-naphthyl)ethyl]cyclohexanol hydrochloride]
35	OC1(C(CN2CCOCC2)c2cccc(Cl)c2)CCCCC1 (centres unmarked) [Example 57, 1-[1-(3-chlorophenyl)-2-morpholin-4-ylethyl]cyclohexanol hydrochloride]
56	OC1(C(CNCc2ccccc2)c2ccc(Cl)c(Cl)c2)CCCCC1 (centres unmarked) [Example 38, 1-[2-(benzylamino)-1-(3,4-dichlorophenyl)ethyl]cyclohexanol hydrochloride]
69	OC1(C(CNCc2cccc(Cl)c2)c2ccc3ccccc3c2)CCCCC1 (centres unmarked) [Example 33, 1-[2-[(3-chlorobenzyl)amino]-1-(2-naphthyl)ethyl]cyclohexanol hydrochloride]
89	CN1CCC(O)(C(CNCc2ccccc2)c2ccc(Cl)c(Cl)c2)CC1 (centres unmarked) [Example 15, 4-[2-(benzylamino)-1-(3,4-dichlorophenyl)ethyl]-1-methylpiperidin-4-ol dihydrochloride]
44	CN1CCC(O)(C(CNCc2ccccc2)c2cccc(Br)c2)CC1 (centres unmarked) [Example 44, 4-[2-(benzylamino)-1-(3-bromophenyl)ethyl]-1-methylpiperidin-4-ol dihydrochloride]
38	OC1(C(CNC2CCCc3ccccc32)c2cccc(Br)c2)CCCCC1 (centres unmarked) [Example 55, 1-[1-(3-bromophenyl)-2-(1,2,3,4-tetrahydronaphthalen-1-ylamino)ethyl]cyclohexanol hydrochloride]
20	OC1(C(CNCc2ccc(F)cc2)c2ccc(Cl)c(Cl)c2)CCCCC1 (centres unmarked) [Example 80, 1-{1-(3,4-dichlorophenyl)-2-[(4-fluorobenzyl)amino]ethyl}cyclohexanol hydrochloride]
19	OC1(C(CN2CCOCC2)c2ccc(Cl)c(Cl)c2)CCC1 (centres unmarked) [Example 83, 1-[1-(3,4-dichlorophenyl)-2-morpholin-4-ylethyl]cyclobutanol hydrochloride]
55	OC1(C(CNCc2ccccc2)c2cccc(Br)c2)CCC1 (centres unmarked) [Example 40, 1-[2-(benzylamino)-1-(3-bromophenyl)ethyl]cyclobutanol hydrochloride]
22	OC1(C(CNCc2ccc(C(F)(F)F)cc2)c2ccc(Cl)c(Cl)c2)CCCCC1 (centres unmarked) [Example 75, 1-(1-(3,4-dichlorophenyl)-2-{[4-(trifluoromethyl)benzyl]amino}ethyl)cyclohexanol hydrochloride]
33	OC1(C(CNCc2cccc(Cl)c2)c2cccc(Br)c2)CCCCC1 (centres unmarked) [Example 60, 1-{1-(3-bromophenyl)-2-[(3-chlorobenzyl)amino]ethyl}cyclohexanol hydrochloride]
65	OC1(C(CN2CCCC2)c2cccc(Cl)c2)CCCCC1 (centres unmarked) [Example 34, 1-[1-(3-chlorophenyl)-2-pyrrolidin-1-ylethyl]cyclohexanol hydrochloride]
40	OC1(C(CNC2CCCCC2)c2cccc(Br)c2)CCCCC1 (centres unmarked) [Example 48, 1-[1-(3-bromophenyl)-2-(cyclohexylamino)ethyl]cyclohexanol hydrochloride]

SMILES	inhibition at 1 µM [%]
OC1(C(CN2CCNCC2)c2cccc(Cl)c2)CCCCC1 (centres unmarked) [Example 1, 1-[1-(3-chlorophenyl)-2-piperazin-1-ylethyl]cyclohexanol dihydrochloride]	93
